According to patent US20090298902A1, “PESTICIDE COMPOSITIONS FOR COMBATING ARTHROPOD PESTS, SNAILS AND NEMATODES” (priority 2006, published 2009):

System: workers of the eastern subterranean termite, Reticulitermes flavipes
Experiment: Test example 4: soil incorporation bioassay with compound P5a formulations
Format: in vivo
Conditions: 24 h, 1 DAT, read-out: Mean cumulative % mortality at days after treatment (DAT)
Procedure: Bioassays were conducted in 60×15 mm Petri dishes with a 1% agar layer for moisture and 15 termite workers per dish. Granular formulations were incorporated into the Princeton sandy loam soil by hand shaking and mixing with use of a commercial jar roller. After incorporation, water was added to field capacity, and the soil was rolled again. The soil was allowed to sit at field capacity overnight. The soil was then air dried for 24 hours prior to introduction into the test dishes. Conventional suspension concentrate of fipronil was used as a standard, and untreated soil used as a control. Test dishes were maintained at approximately 26° C. and 85% RH. Dishes were observed daily for 13 days for mortality. The concentration of active ingredient was 0.0004875% (w/w) in trench.
Test example 4 was performed similar to test example 1, using formulations containing compound P5a. Comparison of a superabsorber formulation of compound P5 to a DC formulation of compound P5 for bioactivity against workers of the eastern subterranean termite, Reticulitermes flavipes, via soil (Princeton sandy loam) incorporation;

Q: Which mortality at 10 ppm (Rate 10 ppm) does the source give for `CCN/C(=N\Nc1c(Cl)cc(C(F)(F)F)cc1Cl)C1(C)CC1(Cl)Cl` (centres unmarked) [Compound P5a] here?
A: 100%

Q: What about the mortality at 100 ppm (Rate 100 ppm) of the same compound?
A: 100%
